# Source: patent US7138361B2, “Herbicidal heterocycles” (E. I. du Pont de Nemours and Company, priority 2000, dated 2006)
# Legend:
# Format in all cases: in vivo
# [1] = system: Surinam grass (Brachiaria decumbens); assay: Test B postemergence; conditions: 13 to 15 days
# Method in brief: (§1)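 Pre: seeded pots sprayed, chemical in non-phytotoxic solvent/surfactant mix. Post: plants 2–18 cm, 1–4 leaf, same formulation. Greenhouse 13–15 d; visual % control vs untreated, 0–100 scale.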
# [2] = system: barnyardgrass (Echinochloa crus-galli); assay: Test B postemergence; conditions: 13 to 15 days
# Method in brief: as §1
# [3] = system: blackgrass (Alopecurus myosuroides); assay: Test B postemergence; conditions: 13 to 15 days
# Method in brief: as §1
# [4] = system: cocklebur (Xanthium strumarium); assay: Test B postemergence; conditions: 13 to 15 days
# Method in brief: as §1
# [5] = system: corn (Zea mays); assay: Test B postemergence; conditions: 13 to 15 days
# Method in brief: as §1
# [6] = system: crabgrass (Digitaria sanguinalis); assay: Test B postemergence; conditions: 13 to 15 days
# Method in brief: as §1
# [7] = system: giant foxtail (Setaria faberii); assay: Test B postemergence; conditions: 13 to 15 days
# Method in brief: as §1
# [8] = system: lambsquarters (Chenopodium album); assay: Test B postemergence; conditions: 13 to 15 days
# Method in brief: as §1
# [9] = system: morning glory (Ipomoea hederacea); assay: Test B postemergence; conditions: 13 to 15 days
# Method in brief: as §1
# [10] = system: pigweed (Amaranthus retroflexus); assay: Test B postemergence; conditions: 13 to 15 days
# Method in brief: as §1
# [11] = system: velvetleaf (Abutilon theophrasti); assay: Test B postemergence; conditions: 13 to 15 days
# Method in brief: as §1
# [12] = system: wheat (Triticum aestivum); assay: Test B postemergence; conditions: 13 to 15 days
# Method in brief: as §1
# [13] = system: wild oat (Avena fatua); assay: Test B postemergence; conditions: 13 to 15 days
# Method in brief: as §1
# [14] = system: Surinam grass (Brachiaria decumbens); assay: Test B preemergence
# Method in brief: as §1
# [15] = system: barnyardgrass (Echinochloa crus-galli); assay: Test B preemergence
# Method in brief: as §1
# [16] = system: cocklebur (Xanthium strumarium); assay: Test B preemergence
# Method in brief: as §1
# [17] = system: corn (Zea mays); assay: Test B preemergence
# Method in brief: as §1
# [18] = system: crabgrass (Digitaria sanguinalis); assay: Test B preemergence
# Method in brief: as §1
# [19] = system: giant foxtail (Setaria faberii); assay: Test B preemergence
# Method in brief: as §1
# [20] = system: lambsquarters (Chenopodium album); assay: Test B preemergence
# Method in brief: as §1
# [21] = system: morning glory (Ipomoea hederacea); assay: Test B preemergence
# Method in brief: as §1
# [22] = system: pigweed (Amaranthus retroflexus); assay: Test B preemergence
# Method in brief: as §1
# [23] = system: rice (Oryza saliva); assay: Test B preemergence
# Method in brief: as §1
# [24] = system: velvetleaf (Abutilon theophrasti); assay: Test B preemergence
# Method in brief: as §1
# [25] = system: rice (Oryza saliva); assay: Test C flooded paddy test; conditions: for Rice plant response rating: Flooded Paddy, scale 0 to 100, 0 no effect, 100 complete control; for Plant response rating, Rice: flooded paddy test, scale 0 to 100 (0 no effect, 100 complete control)
# Method in brief: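 Flooded paddy, 2-leaf stage at treatment. Readout: visual % control vs untreated, 0–100, at 12–14 d in greenhouse.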
# [26] = system: Nightshade; assay: Test C preemergence; conditions: visual evaluation after 12 to 14 days
# [27] = system: Sunflower; assay: Test C preemergence; conditions: scale 0 to 100, 0 no effect, 100 complete control
# [28] = Rate 125 g/ha, scale 0 (no effect) to 100 (complete control)
# [29] = Rate 500 g/ha, scale 0 to 100, 0 is no effect, 100 is complete control
# [30] = Preemergence, Rate 500 g/ha, scale 0 to 100, 0 no effect, 100 complete control
# [31] = preemergence, Rate 125 g/ha, scale of 0 to 100 where 0 is no effect and 100 is complete control, 13 to 15 days
# [32] = preemergence, Rate 125 g/ha, scale 0 to 100, 0 no effect, 100 complete control
structure (smiles),measurement,setting,value
CSc1cccc(N2CCC(n3ccc(C(C)(C)C)n3)C2=O)c1 (centres unmarked) [Compound 86],"Plant response rating, Surinam grass",[1]; [28],0
same,"Plant response rating, Surinam grass",[1]; [29],0
same,"Plant response rating, Barnyardgrass",[2]; [28],0
same,"Plant response rating, Barnyardgrass",[2]; [29],0
same,"Plant response rating, Blackgrass",[3]; [28],0
same,"Plant response rating, Blackgrass",[3]; [29],0
same,"Plant response rating, Cocklebur",[4]; [28],0
same,"Plant response rating, Cocklebur",[4]; [29],0
same,"Plant response rating, Corn",[5]; [28],0
same,"Plant response rating, Corn",[5]; [29],0
same,"Plant response rating, Crabgrass",[6]; [28],0
same,"Plant response rating, Crabgrass",[6]; [29],0
same,"Plant response rating, Foxtail, Giant",[7]; [28],0
same,"Plant response rating, Foxtail, Giant",[7]; [29],0
same,"Plant response rating, Lambsquarters",[8]; [28],0
same,"Plant response rating, Lambsquarters",[8]; [29],50
same,"Plant response rating, Morningglory",[9]; [28],0
same,"Plant response rating, Morningglory",[9]; [29],0
same,"Plant response rating, Pigweed",[10]; [28],0
same,"Plant response rating, Pigweed",[10]; [29],0
same,"Plant response rating, Velvetleaf",[11]; [28],0
same,"Plant response rating, Velvetleaf",[11]; [29],0
same,"Plant response rating, Wheat",[12]; [28],0
same,"Plant response rating, Wheat",[12]; [29],0
same,"Plant response rating, Wild Oat",[13]; [28],0
same,"Plant response rating, Wild Oat",[13]; [29],0
same,"Plant response rating, Surinam grass",[14]; [30],60
same,"Plant response rating, Surinam grass",[14]; [31],0
same,"Plant response rating, Barnyardgrass",[15]; [30],100
same,"Plant response rating, Barnyardgrass",[15]; [31],0
same,"Plant response rating, Cocklebur",[16]; [30],0
same,"Plant response rating, Cocklebur",[16]; [31],0
same,"Plant response rating, Corn",[17]; [30],20
same,"Plant response rating, Corn",[17]; [31],0
same,"Plant response rating, Crabgrass",[18]; [30],100
same,"Plant response rating, Crabgrass",[18]; [31],0
same,"Plant response rating, Foxtail, Giant",[19]; [30],100
same,"Plant response rating, Foxtail, Giant",[19]; [31],80
same,"Plant response rating, Lambsquarters",[20]; [30],100
same,"Plant response rating, Lambsquarters",[20]; [31],100
same,"Plant response rating, Morningglory",[21]; [30],0
same,"Plant response rating, Morningglory",[21]; [31],0
same,"Plant response rating, Pigweed",[22]; [30],100
same,"Plant response rating, Pigweed",[22]; [31],100
same,"Plant response rating, Rice",[23]; [30],0
same,"Plant response rating, Rice",[23]; [31],0
same,"Plant response rating, Velvetleaf",[24]; [30],0
same,"Plant response rating, Velvetleaf",[24]; [31],0
same,Rice plant response rating,[25]; Rate 250 g/ha,0
same,Rice plant response rating,[25]; Rate 500 g/ha,20
same,"Plant response rating, Rice",[25]; Rate 62 g/ha,0
same,"Plant response rating, Rice",[25]; Rate 125 g/ha,0
same,"Plant response rating (0 to 100), Nightshade",[26]; Rate 500 g/ha,10
same,"Plant response rating, Sunflower",[27]; Rate 250 g/ha,20
CC(C)Oc1cccc(N2CCC(n3ccc(C(C)C)n3)C2=O)c1 (centres unmarked) [Compound 82],"Plant response rating, Surinam grass",[1]; [28],0
same,"Plant response rating, Surinam grass",[1]; [29],0
same,"Plant response rating, Barnyardgrass",[2]; [28],0
same,"Plant response rating, Barnyardgrass",[2]; [29],0
same,"Plant response rating, Blackgrass",[3]; [28],0
same,"Plant response rating, Blackgrass",[3]; [29],0
same,"Plant response rating, Cocklebur",[4]; [28],0
same,"Plant response rating, Cocklebur",[4]; [29],20
same,"Plant response rating, Corn",[5]; [28],0
same,"Plant response rating, Corn",[5]; [29],0
same,"Plant response rating, Crabgrass",[6]; [28],0
same,"Plant response rating, Crabgrass",[6]; [29],10
same,"Plant response rating, Foxtail, Giant",[7]; [28],0
same,"Plant response rating, Foxtail, Giant",[7]; [29],0
same,"Plant response rating, Lambsquarters",[8]; [28],20
same,"Plant response rating, Lambsquarters",[8]; [29],70
same,"Plant response rating, Morningglory",[9]; [28],0
same,"Plant response rating, Morningglory",[9]; [29],10
same,"Plant response rating, Pigweed",[10]; [28],0
same,"Plant response rating, Pigweed",[10]; [29],10
same,"Plant response rating, Velvetleaf",[11]; [28],0
same,"Plant response rating, Velvetleaf",[11]; [29],0
same,"Plant response rating, Wheat",[12]; [28],0
same,"Plant response rating, Wheat",[12]; [29],0
same,"Plant response rating, Wild Oat",[13]; [28],0
same,"Plant response rating, Wild Oat",[13]; [29],0
same,"Plant response rating, Surinam grass",[14]; [30],100
same,"Plant response rating, Surinam grass",[14]; [31],90
same,"Plant response rating, Barnyardgrass",[15]; [30],100
same,"Plant response rating, Barnyardgrass",[15]; [31],100
same,"Plant response rating, Cocklebur",[16]; [30],0
same,"Plant response rating, Cocklebur",[16]; [31],0
same,"Plant response rating, Corn",[17]; [30],20
same,"Plant response rating, Corn",[17]; [31],0
same,"Plant response rating, Crabgrass",[18]; [30],100
same,"Plant response rating, Crabgrass",[18]; [31],100
same,"Plant response rating, Foxtail, Giant",[19]; [30],100
same,"Plant response rating, Foxtail, Giant",[19]; [31],100
same,"Plant response rating, Lambsquarters",[20]; [30],100
same,"Plant response rating, Lambsquarters",[20]; [31],100
same,"Plant response rating, Morningglory",[21]; [30],0
same,"Plant response rating, Morningglory",[21]; [31],0
same,"Plant response rating, Pigweed",[22]; [30],100
same,"Plant response rating, Pigweed",[22]; [31],100
same,"Plant response rating, Rice",[23]; [30],100
same,"Plant response rating, Rice",[23]; [31],70
same,"Plant response rating, Velvetleaf",[24]; [30],0
same,"Plant response rating, Velvetleaf",[24]; [31],0
same,Rice plant response rating,[25]; Rate 250 g/ha,60
same,Rice plant response rating,[25]; Rate 500 g/ha,80
same,"Plant response rating, Rice",[25]; Rate 62 g/ha,0
same,"Plant response rating, Rice",[25]; Rate 125 g/ha,30
same,"Plant response rating (0 to 100), Nightshade",[26]; Rate 500 g/ha,100
same,"Plant response rating, Sunflower",[27]; Rate 250 g/ha,70
O=C1C(n2ccc(C3CCC3)n2)SCN1c1cccc(OC(F)F)c1 (centres unmarked) [Compound 45],"Plant response rating, Surinam grass",[1]; [28],0
same,"Plant response rating, Surinam grass",[1]; [29],0
same,"Plant response rating, Barnyardgrass",[2]; [28],30
same,"Plant response rating, Barnyardgrass",[2]; [29],100
same,"Plant response rating, Blackgrass",[3]; [28],0
same,"Plant response rating, Blackgrass",[3]; [29],0
same,"Plant response rating, Cocklebur",[4]; [28],20
same,"Plant response rating, Cocklebur",[4]; [29],40
same,"Plant response rating, Corn",[5]; [28],0
same,"Plant response rating, Corn",[5]; [29],0
same,"Plant response rating, Crabgrass",[6]; [28],0
same,"Plant response rating, Crabgrass",[6]; [29],0
same,"Plant response rating, Foxtail, Giant",[7]; [28],0
same,"Plant response rating, Foxtail, Giant",[7]; [29],0
same,"Plant response rating, Lambsquarters",[8]; [28],0
same,"Plant response rating, Lambsquarters",[8]; [29],0
same,"Plant response rating, Morningglory",[9]; [28],0
same,"Plant response rating, Morningglory",[9]; [29],0
same,"Plant response rating, Pigweed",[10]; [28],0
same,"Plant response rating, Pigweed",[10]; [29],0
same,"Plant response rating, Velvetleaf",[11]; [28],0
same,"Plant response rating, Velvetleaf",[11]; [29],0
same,"Plant response rating, Wheat",[12]; [28],0
same,"Plant response rating, Wheat",[12]; [29],0
same,"Plant response rating, Wild Oat",[13]; [28],0
same,"Plant response rating, Wild Oat",[13]; [29],0
same,"Plant response rating, Surinam grass",[14]; [30],80
same,"Plant response rating, Surinam grass",[14]; [32],70
same,"Plant response rating, Barnyardgrass",[15]; [30],100
same,"Plant response rating, Barnyardgrass",[15]; [32],80
same,"Plant response rating, Cocklebur",[16]; [30],0
same,"Plant response rating, Cocklebur",[16]; [32],0
same,"Plant response rating, Corn",[17]; [30],0
same,"Plant response rating, Corn",[17]; [32],0
same,"Plant response rating, Crabgrass",[18]; [30],100
same,"Plant response rating, Crabgrass",[18]; [32],30
same,"Plant response rating, Foxtail, Giant",[19]; [30],100
same,"Plant response rating, Foxtail, Giant",[19]; [32],100
same,"Plant response rating, Lambsquarters",[20]; [30],100
same,"Plant response rating, Lambsquarters",[20]; [32],100
same,"Plant response rating, Morningglory",[21]; [30],0
same,"Plant response rating, Pigweed",[22]; [30],100
same,"Plant response rating, Rice",[23]; [30],60
same,"Plant response rating, Velvetleaf",[24]; [30],0
same,Rice plant response rating,[25]; Rate 250 g/ha,70
same,Rice plant response rating,[25]; Rate 500 g/ha,100
same,"Plant response rating, Rice",[25]; Rate 62 g/ha,0
same,"Plant response rating, Rice",[25]; Rate 125 g/ha,50
same,"Plant response rating (0 to 100), Nightshade",[26]; Rate 250 g/ha,0
same,"Plant response rating, Sunflower",[27]; Rate 125 g/ha,20
